US20110082087A1, “COMPOUNDS FOR TREATING PAIN” (Edificio ICAT, priority 2008, published 2011)

How the values were obtained:
rats = assay: Comparison with morphine, behavioural nociception tests and behaviour observation; format: in vivo, rat; conditions: i.p.
Procedure: (§1) In vivo behavioural anti-nociception tests were carried out in rats (Wister, male). Unless otherwise stated, compounds were administered by intra-peritoneal (i.p.) injection. For most assays, the Tail Flick and the Hot Plate tests were used.
The analgesic potential of KTP-NH2 was also verified by comparison with well-known, widely-used analgesic molecules: ibuprofen and morphine.
From FIG. 12 it is possible to observe that the efficacy of 3 mg/100 g of KTP-NH2 is similar to that observed with 0.5 mg/100 g dose of morphine.

rats (Wister, male) [1] = assay: Hepatotoxicity markers in plasma; format: in vivo, rat
Procedure: (§2) The toxicological studies were carried out with rats (Wister, male) injected i.p. once a day with 3.23 mg/100 g body mass during seven days.
Liver is the major organ of toxicity. Blood samples were collected and the following hepatotoxicity markers were assayed in the plasma: • Alanine transaminase (ALT), • Aspartate transaminase (AST) • Alkaline phosphatase (ALP) • Total bilirubin (TBILI) • Gamma glutamyl transpeptidase (GGT)
Increased levels of the liver enzymes ALT, AST, ALP and GGT in the plasma would indicate lesions in liver. Increased RBL would be a sign of faulty bilirubin production/hemolysis and/or bilirubin metabolism (in liver).

rats (Wister, male) [2] = assay: Increasing-temperature Hot Plate test; format: in vivo, rat
Procedure: as §1
The hot-plate test (Eddy N. B and Leimbach D. 1953. Synthetic analgesics II. Dithienylbutenyl and dithienylbutylamines J. Pharmacol. Exp. Ther. 45: 339) evaluates a supraspinally integrated response in the form of thermal pain reflexes due to footpad contact with a heated surface. During the experiments, the animal is confined in a removable clear acrylic compartment where the latency time to the first hind paw or/and jumping responses are measured. […] The response is the licking of the hindpaw, and the corresponding plate temperature represents the recorded nociceptive end-point. The advantage of Increasing-Temperature Hot-Plate test over the standard constant-temperature hot-plate test is the higher sensitivity and the lack of influences of pre-exposure to the hot-plate before testing. Animal reaction temperature is a measurement of animal resistance to pain and is used to measure efficacy of analgesics.

[3] = Differential quenching, depth of location in the membrane; format: physicochemical; conditions: phenolic ring; differential quenching with 5-NS and 16-NS
From the text: Differential quenching experiments were used to estimate the depth of location of the phenolic ring of the peptides, based on a Brownian dynamics simulation (Fernandes M. X., Garcia de la Torre J., Castanho M. A. 2002. Joint determination by Brownian dynamics and fluorescence quenching of the in-depth location profile of biomolecules in membranes. Anal. Biochem. 307: 1-12.) This methodology allows to determine where the molecules are preferably inserted along the lipid bilayer. The peptides with the amide group show a greater depth of insertion, 4 Å—KTP-NH2 and 3 Å—Ibu-KTP-NH2, from the lipid/water interface. This is in agreement with KTP-NH2 having a higher affinity for lipids, as desired.

rats (Wister, male) [4] = assay: Histological alterations in liver, kidney and spleen; format: in vivo, rat; conditions: hematoxylin/eosin; 3.23 mg/100 g i.p. seven days
Procedure: as §2
For investigation of histological alterations in liver, kidney and spleen hematoxylin/eosin-stained sections of fixed tissue were used.

[5] = Cytotoxicity (LDH release and ATP); format: cell-based; conditions: human hepatocytes; LDH and ATP determination; read-out: LC50 (the source's name)
Procedure: Cytotoxicity was assessed with a cell-based assay using human hepatocytes. Cell death was assayed by quantifying plasma membrane damage or rupture through measurement of the release of lactate dehydrogenase (LDH) (Legrand, C. et al. 1992. Lactate dehydrogenase (LDH) activity of the cultured eukaryotic cells as marker of the number of dead cells in the medium. J. Biotechnol. 25: 231-243), a stable cytoplasmic enzyme present in most cells. Determination of cell viability was performed by quantifying ATP (Cree I. A and Andreotti P. E. 1997. Measurement of cytotoxicity by ATP-based luminescence assay in primary cell cultures and cell lines. Toxicology in vitro, 11: 553-556), a marker for cell viability because it is present in all metabolically active cells and the concentration declines very rapidly when the cells undergo necrosis or apoptosis.

rats (Wister, male) [6] = assay: Tail Flick test; format: in vivo, rat
Procedure: as §1
The tail-flick test (D'Amour F. E., Smith D. L. 1941. A method for determining the loss of pain sensation. J Pharmacol Exp Ther 1941; 72:74-79) is a standard investigative tool for pain and analgesia assessment in rodents. It is based on a spinal reflex response of the tail to radiant heat. Pain sensitivity in rats was measured as they responded to the application of radiant heat to a small area of their tails. The rat's tail was placed over a window located on a platform and subjected to irradiation by an intense light beam (10 W). When the rat feels discomfort, it flicks its tail which automatically stops the timer. The reaction time from activation of the light beam to the tail flick is automatically presented on a digital display. A cut-off time of 24 s was applied. Animal reaction time is a measurement of animal resistance to pain and is used to measure efficacy of analgesics.

[7] = Metabolic stability in human liver microsomal preparation; format: in vitro ADME; conditions: liver microsomes; 1-hour incubation with human liver microsomal preparation; read-out: compound remained
From the text: Many compounds can never become a drug because they are rapidly metabolized in the liver. It is important to confirm that metabolic stability is adequate to the desired distribution of compound throughout the body.

Plasma stability = format: in vitro ADME, human; conditions: after 1 h incubation
From the text: Drugs are exposed in plasma to enzymatic processes (proteinases, esterases), they can undergo intramolecular rearrangement or bind irreversibly (covalently) to proteins. Compounds which are not stable in plasma have inherent liability as drug candidates, as they are less capable to reach a sufficient concentration at their site of pharmacological activity.

In the case of N=C(N)NCCC[C@H](NC(=O)[C@@H](N)Cc1ccc(O)cc1)C(N)=O [KTP-NH2, L-Tyr-L-Arg-NH2], the “analgesic efficacy compared with morphine” value (rats; 3 mg/100 g KTP-NH2 vs 0.5 mg/100 g morphine) is reported as “similar”, the “alterations in behavior (secondary effects)” value (rats; rats) is reported as “no such secondary effects were observed” and the GGT in plasma (rats (Wister, male) [1]; i.p. once a day 3.23 mg/100 g for seven days) is reported as “trace amounts, below the detection limit”. The “hepatotoxicity markers AST, ALT, ALP, total bilirubin in plasma” value (rats (Wister, male) [1]; i.p. once a day 3.23 mg/100 g for seven days vs control) was “no toxic effects were detected”, the “analgesic effect compared with ibuprofen” value (rats (Wister, male) [2]; Hot Plate, i.p.) was “more pronounced effect” and the “duration of anti-nociceptive response” value (rats (Wister, male) [2]; Hot Plate, i.p., rat) was 30 min. The “smallest dose tested with statistical significance” value (rats (Wister, male) [2]; Hot Plate, i.p., rat) was 1.67 mg for 100 g of body mass, the “analgesic efficacy after oral administration” value (rats (Wister, male) [2]; Hot Plate, oral, rat) was “slight delay of the onset of effect” and the “effect in hot plate test” value (rats (Wister, male) [2]; i.p., rat) was “clear anti-nociceptive response”. For the same compound, the “depth of insertion from the lipid/water interface” value [3] was 4 Å, the “histological alterations in kidney and spleen” value (rats (Wister, male) [4]) was “no histological modifications” and the “histological alterations in liver” value (rats (Wister, male) [4]) was “no sign of hepatic necrosis”. For the same compound, the CC50 [5] was greater than 125 µM, the “response after chronic administration” value (rats (Wister, male) [6]; Tail Flick, 3.23 mg/100 g once a day for seven days vs single injection) was “very similar profile to the control” and the “analgesic effect compared with ibuprofen” value (rats (Wister, male) [6]; Tail Flick, i.p.) was “more durable effect”. The “duration of anti-nociceptive response” value (rats (Wister, male) [6]; Tail Flick, i.p., rat) was 45 min, the “smallest dose tested with statistical significance” value (rats (Wister, male) [6]; Tail Flick, i.p., rat) was 2.45 mg for 100 g of body mass and the “analgesic efficacy after oral administration” value (rats (Wister, male) [6]; Tail Flick, oral, rat) was “slight delay of the onset of effect”. The “effect on tail flick latency” value (rats (Wister, male) [6]; i.p., rat) was “clear anti-nociceptive response”, the “analgesia after pretreatment with naloxone” value (rats (Wister, male) [6]; tail-flick, naloxone 0.5 mg/100 g 10 min before, KTP-NH2 3 mg/100 g) was “completely antagonized” and the remaining at 1 h [7] was 93%. The “stability in human plasma” value (Plasma stability) was 14-21%.
